From a melting point compilation (Tetko et al.; mined from patent text by program, amines drawn as free bases though some values may be those of a salt) come the findings set out here.

The structures appear in SMILES notation.

Usually melting point stands for the temperature, or range, at which the solid turns liquid.

With `Cc1cc(Oc2ccc(N)cc2)c2ncccc2c1`, the melting point is 184 to 185 °C.
In turn, `CNc1scc(C)c1C(=O)c1ccccc1` came in with a melting point of 144 to 145 °C.
The figure for `CCOCC1COc2ccc(N)cc2O1` (centres undefined) is 103 to 106 °C.
The figure for `Cn1c(=O)n(CCCC(NS(=O)(=O)c2ccc(-c3ccc(Cl)cc3)cc2)C(=O)NO)c(=O)c2ccccc21` (centres undefined) is 235 °C; for `O=C(O)c1cc([N+](=O)[O-])cc2c1CCCC2` it is 209 to 212 °C.
The figure for `CCOCc1nc2c(N)nc(C)c(C)c2n1CCC1CCN(Cc2ccccc2)CC1` is 165 to 167 °C; for `CCOc1cc2c(cc1OCC)C(C(C#N)SCCCO)=NCC2` (centres undefined) it is 100 to 105 °C; for `CC(=O)c1cc(Cl)cc(Oc2ncccc2C(=O)NCc2ccc(C(C)(C)O)cc2)c1` it is 110 to 112 °C.
The compound `O=C(c1cc(C(F)(F)F)nc2c(Cl)cc(Cl)cc12)c1cc(C(F)(F)F)nc2c(Cl)cc(Cl)cc12` showed a melting point of 193 to 194 °C.
Under `CS(=O)(=O)OCc1cc(-c2ccc3c(c2)CCO3)nn(CC2CC2)c1=O` stands 108 to 111 °C.
With `O=C/C(=C/c1ccccc1)c1ccc(Cl)cc1`, the melting point fell in the range of 70 to 75 °C.
`CC(C)C1=Nc2ccccc2N(C)C(=O)C1N` (centres undefined) yielded a melting point of 167 to 168 °C.
The figure for `CC1CCC(=NNc2ccc([N+](=O)[O-])cc2[N+](=O)[O-])c2ncc(C(=O)O)c(=O)n21` (centres undefined) is 257 to 258 °C; for `CCCCOc1cc2ncnc(Nc3cccc(CC)c3)c2cc1OCCOC` it is 90 to 92 °C.
Consider `CN(C)C(=O)c1ccc(C(=O)Nc2cccc3cc(Br)cnc23)cc1`, for which the melting point was 196 to 198 °C.
The figure for `CCOC1CC2(C)C(CCC3C4CCC(=O)C4(C)CC(N)C32)CC1O` (centres undefined) is 144 to 148 °C.
Under `COc1ccc(Nc2nc(NC3CCCCCC3)nc(Oc3ccc(C(C)=O)cc3Cl)n2)cc1Cl` stands 186 to 196 °C; under `COc1ccc(Br)c2ccc(C(F)(F)F)nc12`, 84 to 85 °C.
The figure for `CCc1cccc(C)c1S(=O)(=O)c1nc[nH]n1` is 180 to 181 °C; for `COC(=S)C(C)Cc1ccc(OCc2nc3ccc(SC)cc3n2C)cc1` (centres undefined) it is 97 to 100 °C.
For `CC1(C)CC(=C(c2ccc(O)cc2)c2ccc(C#CCCC(=O)O)cc2)CC(C)(C)C1`, the melting point lay in the range of 233 to 234 °C.
Under `Cc1cccc(C2(O)CCN(C)CC2)c1` stands 86 to 90 °C.
Under `COc1ccnc(NC(N)=S)c1` stands 214 to 217 °C; under `CCCc1nn(-c2ccc(C(F)(F)F)cn2)cc1CCCOc1cc(CC(=O)O)cc(OC)c1`, 139 to 140 °C.
Under `O=C(O)C1=Cc2cc(Br)cc(Cl)c2OC1C(F)(F)F` (centres undefined) stands 221 to 222 °C; under `Cc1oc2ccccc2c1OC(C)(C)C#N`, 53 to 55 °C.
Turning to `NC1=NC(c2ccc(C(F)(F)F)cc2)Nc2cccc(F)c21` (centres undefined), the melting point lay within 220 to 222 °C.
For `Oc1ccc(C(c2ccc(O)cc2)c2cccc3ccccc23)cc1`, the melting point is 109 to 111 °C.
Under `N#Cc1ccc(Oc2nccc(-c3c(-c4ccc(F)cc4)ncn3C3CCNCC3)n2)cc1` stands 192 to 193 °C; under `O=C1NCCC12CCCN2Cc1ccccc1` (centres undefined), 152 to 153 °C; under `CCN(CC)C(=O)c1c(Cl)cccc1C(=O)Nc1ccc(Cn2nc(C(F)(F)F)cc2C(F)(F)F)cc1C`, 105 to 107 °C.
The figure for `COc1ccnc(CSc2nc3cc(OC(F)(F)F)ccc3[nH]2)c1` is 134 to 135 °C.
Under `OC(CN1CCNC1=S)c1cccnc1` (centres undefined) stands 200 to 202 °C.
As for `O=C(NCCCc1ccc(CCl)cc1)c1ccc(-c2ccccn2)cc1`, the melting point was in the range of 115 to 117 °C.
Under `O=C(O)c1ccc2c(c1)C=Cc1ccc(C(=O)O)cc1S2(=O)=O` stands 375 °C; under `CN(Cc1ccc(NC(=O)C2=Cc3cc(-c4ccc(F)cc4)ccc3S(=O)(=O)CC2)cc1)C1CCOCC1`, 219 to 221 °C; under `CCc1ccc(-c2nc3ccccc3o2)cc1`, 84 to 86 °C.
With `CCOc1nn(Cc2ccc(OCCc3nc(-c4ccccc4)oc3C)cc2)cc1CCC(=O)O`, the melting point was in the range of 142 to 143 °C.
The figure for `Brc1ccc2c3nc4ccccc4[nH]c-3nc2c1` is more than 300 °C.
The figure for `N[C@@H](CCC(=O)N[C@@H](CS)C(=O)O)C(=O)O` is 187 °C; for `O=C(Cl)Cc1ccccc1NS(=O)(=O)C(F)(F)F` it is 94 to 95 °C.
Under `NC(=O)c1ccc2[nH]c(=O)oc2c1` stands 296 °C; under `O=[N+]([O-])c1cc(F)cc(I)c1O`, 40 °C; under `N#Cc1cccc(-c2nc(C(N)=O)c3[nH]c(=O)n(-c4ccccc4)c3n2)c1`, 328 to 330 °C.
Consider `NS(=O)(=O)c1ccc(F)cc1`, for which the melting point lay within 123 to 125 °C.
Under `COc1cc(OCc2cn(-c3ccc(C(F)(F)F)cn3)nc2C)ccc1CCC(=O)O` stands 158 to 159 °C.
The figure for `COc1ccc(COc2c(OC)cc(C=C(C(=O)OC(C)C)P(=O)(OC)OC)cc2OC)cc1` is 68 to 69 °C; for `CCn1nnc(Cc2ccc(NC(=O)/C=C/c3cnn(C)c3-c3ccc(F)cc3)cc2)n1` it is 187 to 188 °C.
The figure for `CN1C(=O)CC[C@]2(C)c3ccc(C(=O)Oc4ccccc4)cc3CC[C@@H]12` is 194 to 196 °C; for `COc1ccc2cc([C@H](C)C(=O)OCC3(C(SN=O)(C4CC4)C4CC4)CCN(C)CC3)ccc2c1` it is 88 °C.
With `CC(C)N(CCC(CCN(C)C)(C(N)=O)c1ccc(F)cc1)C(C)C` (centres undefined), the melting point lay in the range of 78 to 80 °C.
The figure for `Cc1cnc2c(cc(C(N)=O)c3nncc32)c(-c2ccccc2F)n1` is 323 to 324 °C; for `CCOC(=O)C(=CNc1ncccc1C)C(=O)OCC` it is 65 to 67 °C; for `O=C1Cc2cc(NC(=O)C(=O)N3CCC(Oc4ccc(F)cc4)CC3)ccc2N1` it is 147 to 149 °C.
The figure for `CCOC(=O)C(=CNC1CC1)C(=O)c1cc(F)c(F)c(OC)c1F` is 56 to 58 °C; for `COCCOCc1c(CN(C)CC(O)c2c[nH]c3ccccc23)sc2c(=O)c(C(=O)NCc3ccc(Cl)cc3)cn(C)c12` (centres undefined) it is 167 to 169 °C; for `CCOCC(=O)Nc1nc2ccccc2s1` it is 113 to 114 °C.
`CS(=O)(=O)c1ccc(-c2ccccc2NC(=N)N2CCCCC2)cc1`: the melting point fell in the range of 128 to 129 °C.
The figure for `CCOC(=O)C(C(=O)Nc1nccs1)C(=O)c1cccc(C(F)(F)F)c1NC(=O)C(Cl)Cl` (centres undefined) is 90 °C.
Consider `O=C(O)Cc1c(C(=O)c2ccccc2)[nH]c2cc(Cl)cc(Cl)c12`, for which the melting point is 214 to 218 °C.
The figure for `CCOP(=O)(CCCCCCCOc1nc(-c2ccccc2)c(-c2ccccc2)n1-c1ccccc1)OCC` is 76 to 77 °C.
For `COc1cc2c(cc1OC)CCN=C2`, the melting point was in the range of 185 to 187 °C.
The figure for `NC(=O)Cc1cccc(Oc2ccccc2)c1` is 115 to 117 °C; for `CNC(=C[N+](=O)[O-])NCCCCc1ccc(CN(C)C)s1` it is 104 to 106 °C.
